Results published in patent US7235536B2, “Cellulose sulfate and other sulfated polysaccharides to prevent and treat papilloma virus infection and other infections” (Rush Presbyterian-St. Luke's Medical Center, priority 2000, dated 2007).

Tests used:
[1] = test system: human papilloma virus-like particles (VLP's); settings: Joyce et al. 1999; cited from earlier work
HPV-11 = assay: RT-PCR ELISA for transient infection of human A431 cells, HPV-11; type: cell-based, human papilloma virus; settings: with virus (HPV-11)
Experimental: (§1) Cellulose sulfate and dextran sulfate were each prepared as a 2 mg/ml solution in 0.9% NaCl and tested for microbicidal activity using the in vitro HPV transient infection assay originally described by Smith and colleagues (Smith, L. H., C. Foster, M. E. Hitchcock, and R. Isseroff. 1993. In vitro HPV-11 infection of human foreskin. J. Invest. Dermatol. 101:292-295) with some modifications (Ludmerer, S. W., W. L. McClements, X. M. Wang, J. C. Ling, K. U. Jansen, and N. D. Christensen. 2000. HPV11 mutant virus-like parties elicit immune responses that neutralize virus and delineate a novel neutralizing domain. Virology 266:237-245). An ELISA-based read-out of Optical Density (OD) values using alkaline phosphatase cleavage of the substrate p-nitrophenyl phosphate was also used to measure HPV infection as described below.
(§2) A modification of the RT-PCR assay that incorporates an ELISA-based read-out (Boehringer-Mannheim) was also included to assess microbicidal activity. Replicate cell cultures of A431 cells were infected with an aliquot of infectious HPV virions as described above. After 4 days of culture, cells were harvested and RNA extracted. RNA was subjected to RT using downstream anti-sense (reverse) primers for HPV-11 or HPV-40 and β-actin (as a control/housekeeping cellular transcript) to initiate cDNA synthesis. The cDNA was processed through 2 sets of 30 cycles of PCR amplification using nested primers: the second set of cycles used digoxygenin (DIG)-dUTP to label the PCR products with DIG. DIG-labeled PCR products were denatured then renatured together with a biotinylated oligonucleotide specific for the targeted PCR product. Biotinylated products were detected in ELISA with plates coated with streptavidin (to capture the biotinylated target PCR product) then anti-DIG antibody and substrate. Labeled PCR products were added directly to ELISA plates, or titrated at 10-fold dilutions in duplicate for each cell culture for each virus dilution.

BPV-1 [2] = assay: BPV-1 focus-forming assay, virus preincubated with compound (Table C); type: cell-based, bovine papilloma virus; settings: C127 cell line
Experimental: In a similar study using the BPV-1 focus forming assay, the effect of the cellulose sulfate and dextran sulfate on BPV was tested. In this study, cellulose sulfate tested was as described above. Dextran sulfate used was from Dextran Products Limited (Lot DSM-122) prepared using dextan of average Mr of about 500,000 (based on viscosity) and is estimated to have a final average Mr greater than about 500,000 and may be about 1 to 1.1 million.
Microbicidal activity of the compounds was tested using the well-characterized BPV-1 focus-forming assay (Dvoretzky, I., R. Shober, S. K. Chattopadhyay, and D. R. Lowy. 1980. A quantitative in vitro focus assay for bovine papilloma virus. Virology 103:369-375), with modifications for microbicide testing (Hermonat, P. L., (1992) supra; Howett, M. K., et al. (1999) supra. The terms inhibiting or microbicidal activity when used are intended to refer broadly to microbe infection and/or microbe inactivating effect.
Aliquots of BPV-1 containing approximately 100-200 focus-forming units were preincubated with dilutions of compounds for 10 min at 37° C. prior to addition to cultures of mouse C127 cells. Cultures of C127 cells were set up in T25 tissue culture flasks (Corning, N.Y.), containing 3×10^5 cells per flask. Virus-compound mixtures in a total of 50 μl were then added to flasks in 1 ml of media, and an additional 3 ml of media added after 24 hrs culture. Media was changed every 3-4 days for a period of 2 weeks. Foci were enumerated following staining of the monolayer with crystal violet and counting stained foci microscopically. Each concentration of compound was tested in duplicate, and the mean±SD of foci number for the preincubation virus-drug concentration for each compound is shown below as Table C.
Clones were derived from the parental C127 cell line because of the consistent failure of BPV-1 to induce foci following several cell passages of the uncloned parental cell line. One clone, labeled C127-D10, which produced foci upon BPV-1 infection, was chosen for a repeat testing of the compounds. When this clone was tested for microbicidal activity, less compound was required to achieve high reduction in BPV-1-induced foci when compared to the uncloned parental-C127 cells.

BPV-1 [3] = assay: BPV-1 focus-forming assay, cells pre-incubated with compound and washed before virus (Table D); type: cell-based, bovine papilloma virus; settings: for Average ± standard deviation (foci/well): C127-D10 cells, washed before virus
Experimental: Microbicidal activity of compounds was also tested by pre-incubation of cells with compounds followed by addition of virus to compound-coated C127 cells. In these experiments, dilutions of compounds were added to cultures of C127 cells, incubated for 1 hr at 37° C., washed 3 times with media to remove unbound compound, prior to addition of approximately 100 focus-forming units of BPV-1. The cultures were incubated for an additional hour, washed three times to remove unbound virus, then the incubation was continued for two weeks with media changes every 3-4 days and foci counted as described above.
Pre-incubation of C127-D10 cells with compounds prior to addition of BPV-1 was tested to determine whether the microbicidal effects of CS and DS extended to a blockage of virus interaction with cell surfaces. In these experiments, titrations of compounds were added to cell cultures followed by washing away unbound reagent prior to addition of virus. After a one-hour incubation with virus, unbound virus was removed by washing and the cultures monitored for foci after two weeks.

HPV-40 = assay: RT-PCR ELISA for transient infection of human A431 cells, HPV-40; type: cell-based, human papilloma virus; settings: with virus (HPV-40)
Experimental: as §1
The RT-PCR assay to detect HPV-40 infection was designed similarly for the detection of HPV-11 infection as described above.
as §2
The microbicidal activity was assessed either as the detection of ethidium stained PCR products or as an ELISA-based read-out as described above. […] An initial experiment was conducted to test the specificity of the ELISA-based RT-PCR assay using HPV-11 and HPV-40 infection of A431 cells (Table E).

papillomaviruses = settings: literature; cited from earlier work
[4] = 100 μg/ml at viral pretreatment

| Substance | binding of VLP's to HaCaT cells [1] | Mean (SD) of O.D. reading for RT-PCR ELISA, HPV-11 probe (HPV-11; 10 μg/ml at viral pretreatment) | Mean (SD) of O.D. reading for RT-PCR ELISA, HPV-11 probe (HPV-11; [4]) | inhibition of papilloma virus infectivity (BPV-1 [2]; 100 μg/ml) | inhibition of papilloma virus infectivity (BPV-1 [2]; 1 mg/ml) | Average ± standard deviation (foci/well) (BPV-1 [3]; 10 μg/ml) | reduction of BPV-1-induced foci (BPV-1 [3]; 10 μg/ml, cells pre-treated, washed) | Average ± standard deviation (foci/well) (BPV-1 [3]; 100 μg/ml) | Average ± standard deviation (foci/well) (BPV-1 [3]; 1,000 μg/ml) | Average ± standard deviation (foci/well) (BPV-1 [3]; 10,000 μg/ml) | Mean (SD) of O.D. reading for RT-PCR ELISA, HPV-40 probe (HPV-40; 10 μg/ml at viral pretreatment) | Mean (SD) of O.D. reading for RT-PCR ELISA, HPV-40 probe (HPV-40; [4]) | Mean (SD) of O.D. reading for RT-PCR ELISA, HPV-40 probe (HPV-40; 1000 μg/ml at viral pretreatment) | microbicidal activity against papillomaviruses (papillomaviruses) |
| --- | --- | --- | --- | --- | --- | --- | --- | --- | --- | --- | --- | --- | --- | --- |
| heparin [reference compound] | inhibited | – | – | – | – | – | – | – | – | – | – | – | – | – |
| Dextran sulfate | inhibited | 0.023 (0.000) O.D. | 0.035 (0.000) O.D. | moderate inhibition | very high inhibition | 31 ± 16.9 | substantial reduction in foci | 15 ± 4.6 | 4 ± 2.6 | 0 | 0.042 (0.007) O.D. | 0.375 (0.073) O.D. | 0.006 (0.007) O.D. | – |
| nonoxynol-9 | – | – | – | – | – | – | – | – | – | – | – | – | – | ineffective |
